Assays:
Assay in all cases: relative viability (nuclei count vs DMSO), 5 days (fraction); higher = more cells survive
[1] = compound: COc1cc2ncn(-c3cc(OCc4ccccc4C(F)(F)F)c(C(N)=O)s3)c2cc1OC + CC(=O)c1c(C)c2cnc(Nc3ccc(N4CCNCC4)cn3)nc2n(C2CCCC2)c1=O [Palbociclib] (partner 0.5 µM)
How it was run: (§1)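 Lung cancer cell lines in 1536-well plates were dosed by pin tool the day after seeding, either with one drug alone or with a fixed anchor-drug dose plus five library-drug doses (not always all listed) in √10 steps. After 5 days, cells were fixed and their nuclei stained in one step (final 0.05% Triton X-100, 1% formaldehyde, 1 ug/ml Hoechst), then counted on 4× images. Relative viability is the nuclei count in treated wells divided by that in vehicle wells. Values are medians of duplicate plates.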

[2] = compound: COc1cc2ncn(-c3cc(OCc4ccccc4C(F)(F)F)c(C(N)=O)s3)c2cc1OC + Cc1nc(NC(=O)N2CCC[C@H]2C(N)=O)sc1-c1ccnc(C(C)(C)C(F)(F)F)c1 [Alpelisib] (partner 2 µM)
How it was run: as §1

[3] = compound: COc1cc2ncn(-c3cc(OCc4ccccc4C(F)(F)F)c(C(N)=O)s3)c2cc1OC + CC(C)C[C@H](NC(=O)[C@H](Cc1ccccc1)NC(=O)c1cnccn1)B(O)O [Bortezomib] (partner 0.002 µM)
How it was run: as §1

[4] = compound: COc1cc2ncn(-c3cc(OCc4ccccc4C(F)(F)F)c(C(N)=O)s3)c2cc1OC + Cc1nc(Nc2ncc(C(=O)Nc3c(C)cccc3Cl)s2)cc(N2CCN(CCO)CC2)n1 [Dasatinib] (partner 0.075 µM)
How it was run: as §1

Row | Cell Line | relative viability ([1]; first compound 0.05 µM) | relative viability ([1]; first compound 0.1581 µM) | relative viability ([1]; first compound 0.5 µM) | relative viability ([1]; first compound 1.581 µM) | relative viability ([1]; first compound 5 µM) | relative viability ([2]; first compound 0.05 µM) | relative viability ([2]; first compound 0.1581 µM) | relative viability ([2]; first compound 0.5 µM) | relative viability ([2]; first compound 1.581 µM) | relative viability ([2]; first compound 5 µM) | relative viability ([3]; first compound 0.05 µM) | relative viability ([3]; first compound 0.1581 µM) | relative viability ([3]; first compound 0.5 µM) | relative viability ([3]; first compound 1.581 µM) | relative viability ([3]; first compound 5 µM) | relative viability ([4]; first compound 0.05 µM) | relative viability ([4]; first compound 0.1581 µM) | relative viability ([4]; first compound 0.5 µM) | relative viability ([4]; first compound 1.581 µM) | relative viability ([4]; first compound 5 µM)
1 | LU99A | 0.408 | 0.386 | 0.345 | 0.184 | 0.145 | 0.488 | 0.495 | 0.36 | 0.189 | 0.167 | 1.14 | 1.08 | 0.898 | 0.206 | 0.201 | 0.493 | 0.548 | 0.256 | 0.182 | 0.135
2 | NCI-H1355 | 0.271 | 0.423 | 0.345 | 0.186 | 0.152 | 0.879 | 0.827 | 0.669 | 0.208 | 0.143 | 1.15 | 1.15 | 0.95 | 0.232 | 0.164 | 0.707 | 0.739 | 0.491 | 0.163 | 0.143
3 | NCI-H520 | 0.149 | 0.253 | 0.179 | 0.155 | 0.121 | 1.08 | 0.882 | 0.508 | 0.186 | 0.158 | 0.689 | 0.568 | 0.25 | 0.169 | 0.144 | 0.239 | 0.202 | 0.157 | 0.191 | 0.193
4 | NCI-H727 | 0.701 | 0.716 | 0.608 | 0.547 | 0.628 | 0.545 | 0.695 | 0.41 | 0.282 | 0.247 | 1.05 | 0.835 | 0.583 | 0.317 | 0.381 | 0.383 | 0.349 | 0.362 | 0.225 | 0.329
5 | NCI-H661 | 0.441 | 0.428 | 0.335 | 0.248 | 0.241 | 0.855 | 0.367 | 0.499 | 0.26 | 0.224 | 0.818 | 0.819 | 0.485 | 0.217 | 0.257 | 0.986 | 0.779 | 0.312 | 0.293 | 0.171
6 | NCI-H650 | 0.301 | 0.335 | 0.279 | 0.188 | 0.34 | 1.11 | 1.1 | 0.698 | 0.185 | 0.29 | 0.89 | 0.78 | 0.512 | 0.163 | 0.214 | 0.468 | 0.429 | 0.32 | 0.166 | 0.261
7 | 201T | 0.363 | 0.38 | 0.335 | 0.349 | 0.28 | 1 | 1.08 | 0.984 | 0.475 | 0.297 | 1.12 | 1.13 | 1.12 | 0.902 | 0.365 | 0.543 | 0.536 | 0.546 | 0.45 | 0.244
8 | PC-14 | 0.503 | 0.403 | 0.154 | 0.0334 | 0.0605 | 0.833 | 0.944 | 0.768 | 0.0614 | 0.135 | 0.723 | 0.794 | 0.404 | 0.0771 | 0.0641 | 0.201 | 0.235 | 0.106 | 0.0176 | 0.0233
9 | LK-2 | 0.78 | 0.293 | 0.444 | 0.252 | 0.113 | 1.13 | 0.957 | 0.575 | 0.298 | 0.263 |  |  |  |  |  | 0.282 | 0.369 | 0.262 | 0.154 | 0.151
10 | NCI-H1944 | 0.412 | 0.373 | 0.308 | 0.205 | 0.119 | 0.871 | 0.901 | 0.619 | 0.173 | 0.118 |  |  |  |  |  | 0.227 | 0.223 | 0.191 | 0.127 | 0.109
11 | NCI-H1650 | 0.295 | 0.329 | 0.234 | 0.146 | 0.141 |  |  |  |  |  | 0.222 | 0.184 | 0.185 | 0.175 | 0.172 | 0.329 | 0.305 | 0.268 | 0.142 | 0.145
12 | NCI-H596 |  |  |  |  |  | 0.496 | 0.514 | 0.35 | 0.29 | 0.23 |  | 1.11 | 0.828 | 0.638 | 0.312 | 0.616 | 0.561 | 0.478 | 0.279 | 0.235
13 | SK-MES-1 | 0.298 | 0.281 | 0.264 | 0.192 | 0.199 | 0.924 | 0.883 | 0.639 | 0.148 | 0.553 |  |  |  |  |  | 0.338 | 0.367 | 0.184 | 0.129 | 0.116
14 | NCI-H2170 | 0.401 | 0.371 | 0.212 | 0.165 | 0.148 | 0.789 | 0.799 | 0.41 | 0.176 | 0.18 |  |  |  |  |  | 0.545 | 0.406 | 0.374 | 0.163 | 0.156
15 | NCI-H358 | 0.139 | 0.126 | 0.11 | 0.0792 | 0.0843 | 0.852 | 1 | 0.386 | 0.127 | 0.177 |  |  |  |  |  | 0.151 | 0.195 | 0.185 | 0.0783 | 0.0726
16 | NCI-H1563 |  |  |  |  |  | 0.953 | 1.02 | 0.917 | 0.745 | 0.599 | 0.985 | 1.01 | 0.807 | 0.676 | 0.592 | 0.51 | 0.506 | 0.454 | 0.44 | 0.349
17 | EBC-1 |  |  |  |  |  | 0.82 | 0.682 | 0.235 | 0.207 | 0.194 | 0.454 | 0.439 | 0.208 | 0.139 | 0.159 |  |  |  |  | 
18 | Calu-6 |  |  |  |  |  | 0.92 | 0.67 | 0.23 | 0.128 | 0.112 | 0.805 | 0.69 | 0.203 | 0.116 | 0.117 |  |  |  |  | 
19 | HCC-44 | 1.02 | 1.01 | 0.925 | 0.383 | 0.35 | 0.908 | 0.76 | 0.503 | 0.13 | 0.0819 | 0.949 | 0.874 | 0.714 | 0.127 | 0.107 |  |  |  |  | 

Reference: the supplement of paper PMC10307832
